Experimental data published in US20190022225A1, “PROTOCOL FOR INCREASING LIFE EXPECTANCY IN A TEST SUBJECT” (Mayo Foundation for Medical Education and Research, priority 2015, published 2019).

Assays:
[1] = system: doxorubicin-induced senescent foreskin fibroblasts (HCA2) and aortic endothelial cells (Endo Aort); assay: Cell count survival assay of Nutlin-3a on doxorubicin-induced senescent cells; type: cell-based; conditions: doxorubicin 250 nM 24 h; HCA2 9 days, aortic endothelial cells 11 days of Nutlin-3a
Method: Foreskin fibroblast cell lines HCA2 and BJ, lung fibroblast cell line IMR90, and mouse embryonic fibroblasts were seeded in six-well plates and induced to senesce with 10 Gy of ionizing radiation (IR) or a 24 hr treatment with doxorubicin (Doxo). Senescent phenotype was allowed to develop for at least 7 days, at which point a cell count was made to determine the baseline number of cells. Nutlin-3a treatment was then initiated for a period of at least 9 days. Media alone or media with drug as appropriate was refreshed at least every three days. At the end of the assay time period, cells are counted. Each condition was seeded in three plate wells and counted independently. Initial cell count serves as a control to determine the induction of senescence, as compared to the last day count without nutlin treatment. Initial non-senescent cell count serves as a proxy to determine Nutlin-3a toxicity.
Foreskin fibroblasts (HCA2) and aortic endothelial cells (Endo Aort) were treated with doxorubicin (250 nM) for one day (24 hours) to induce senescence (see FIG. 1). Eight days following doxorubicin treatment, Nutlin-3a treatment was initiated. HCA2 cells were exposed to Nutlin-3a for 9 days, and aortic endothelial cells were exposed to Nutlin-3a for 11 days. […] Percent survival was calculated as [cell count on the last day of Nutlin-3a treatment/initial cell count on first day of Nutlin-3a treatment].

[2] = system: p21, p16, IL-1a, CXCL-1, IL-6, IL-8 expression in senescent IMR90 cells; assay: qPCR of senescence markers and SASP factors in irradiated senescent IMR90 cells treated with Nutlin-3a; type: cell-based, human
Method: Primary human fibroblast (IMR90) cells were induced to senesce by applying 10 Gy of irradiation. Seven days after irradiation (Day 0), cells were treated with 10 μM Nutlin-3a or vehicle (DMSO) for nine days (Day 9). The drug or vehicle was refreshed every three days. Drug/vehicle was removed at Day 9 and the cells were cultured for an additional three days (Day 12) in media without drug or DMSO. Cells were then collected, mRNA extracted, and cDNA prepared. Quantitative PCR (qPCR) was then performed to detect expression of various genes. Cells were also collected at Day 12 after drug/vehicle had been removed for three days. The data are presented as an average of three samples. Data were normalized to actin and depicted as a ratio to non-senescent cells.

[3] = system: pATM, γH2AX, IkBa, MDM2, p53, p21 in senescent IMR90 cells; assay: Immunoblot of DNA damage response proteins in irradiated senescent IMR90 cells treated with Nutlin-3a; type: cell-based, human
Method: Primary human fibroblast (IMR90) cells were induced to senesce by applying 10 Gy of irradiation. Seven days after irradiation (Day 0), cells were treated with 10 μM Nutlin-3a or vehicle (DMSO) for nine days (Day 9). The drug or vehicle was refreshed every three days. Drug/vehicle was removed at Day 9 and the cells were cultured for an additional six days in media without drug or DMSO, changing media every three days. Cells were collected at Day 0 (non-senescent cells), Day 9, Day 12, and Day 15, and protein extracted and processed for immunoblotting (Western blotting). Two samples were processed at each time point; the results are provided for one sample in FIG. 14.

[4] = system: LDLR−/−/3MR double transgenic mice; assay: Atherosclerosis model, LDLR-/-/3MR mice, 100 day ganciclovir treatment period; type: in vivo, mouse
Method: The impact of clearance of senescent cells on the stability and size of mature atherosclerotic plaques was studied in LDLR^−/− MR double transgenic mice. From 10 weeks of age, LDLR^−/− MR double transgenic mice (10 weeks) and LDLR^−/− single transgenic mice (control) were fed a high fat diet (Harlan Teklad TD.88137) having 42% calories from fat beginning at Week 0 until Week 12.5, when the mice were switched to normal chow diet. Both groups of mice were treated with ganciclovir from week 12.5 over the next 100 days, with each treatment cycle comprising 5 days of ganciclovir (25 mg/kg intraperitoneally daily) and 14 days off. At the end of the 100 day treatment period, the mice were sacrificed, plasma and tissues were collected, and atherosclerosis was quantitated. Descending aortas were dissected and stained with Sudan IV to visualize the plaque lipids. […] Plaques from ganciclovir-treated LDLR^−/− control and LDLR^−/− MR mice (see dashed circled plaques in FIGS. 55A-B, respectively) were harvested and cut into cross-sections and stained with […] the general architecture of the atherosclerotic plaques. “#” indicates fat located on the outside of the aorta (see FIG. 55A). The plaques marked with an “*” and “*” in FIGS. 55A and B, respectively, are shown as stained cross-sections in FIGS. 55B and D, respectively. […] The plaque from the control mice has identifiable “lipid pockets” accumulating within. […] Disruption or tear in the cap of a lipid-rich plaque is a trigger for coronary events through exposure of plaque thrombogenic components to platelets and clotting components of the blood. Plaques that grow more rapidly as a result of rapid lipid deposition and have thin fibrin caps are prone to rupture. Slowly growing plaques with mature fibrin caps tend to stabilize and are not prone to rupture. Taken together, these experiments indicate that removal of senescent cells may affect atherosclerotic plaque architecture and have a stabilizing effect.

[5] = system: p16-3MR mice fed a high fat diet; assay: High fat feeding-induced senescence in p16-3MR mice, SA-β-Gal staining of adipose tissue; type: in vivo, mouse; conditions: 25 mg/kg daily for five consecutive days; p=<0.004
Method: Groups of p16-3MR mice (n=6) were fed a high fat diet (60% fat) for four months mice or a regular chow diet. The presence of senescence cells was determined by measuring luminescence (i.e., p16 positive cells). […] Animals were then treated with ganciclovir or vehicle to determine if removal of senescent cells reduced the presence of senescent cells in adipose tissue. Groups of animals were treated with ganciclovir or vehicle. Ganciclovir (25 mg/kg) was administered daily for five consecutive days. The presence of senescent cells in perirenal, epididymal, or subcutaneous inguinal adipose tissue was detected by SA-β-Gal staining. Data were analyzed by ANOVA.

[6] = system: paclitaxel treated p16-3MR mice; assay: Chemotherapy related side effects: voluntary exercise (wheel counts) after paclitaxel in p16-3MR mice; type: in vivo, mouse; conditions: ABT-263 100 mg/kg ip daily 7 days; ganciclovir 25 mg/kg ip daily 3 days
Method: ABT-263 (100 mg/kg) was administered intraperitoneally daily for seven days after paclitaxel administration. Two days after the last dose of ABT-263, all groups of animals were housed in metabolic cages (promethion, sable systems international, Las Vegas, Nev.) to monitor voluntary exercise as determined by wheel counts. Data were collected and analyzed two days later. Clearance of senescent cells by ABT-263 and ganciclovir restored approximately 70% of wheel count reduction caused by chemotherapy treatment.

Structure (SMILES): COc1ccc(C2=N[C@@H](c3ccc(Cl)cc3)[C@@H](c3ccc(Cl)cc3)N2C(=O)N2CCNC(=O)C2)c(OC(C)C)c1 [Nutlin-3a]
- sensitivity of doxorubicin-induced senescent cells (percent survival) [1]: sensitive
- level of p21 mRNA, ratio to non-senescent cells ([2]; 10 μM, day 9): approximately 90 fold
- level of IL-1a mRNA ([2]; 10 μM, day 9 and day 12): decreased only after Nutlin-3a had been removed
- levels of CXCL-1, IL-6 and IL-8 mRNA ([2]; 10 μM, day 9 and day 12): reduced when Nutlin-3a was present and remained lower after drug removal
- level of p16 mRNA ([2]; 10 μM, drug present (day 9)): did not change
- level of p16 mRNA ([2]; day 12, three days after drug removal): decrease
- phosphorylation of the kinase ATM (pATM S1981) ([3]; 10 μM, also after drug removal): lower
- level of IkBa ([3]; after drug is removed): approaches the level of IkBa in non-senescent cells
- phosphorylation of H2AX (γH2AX) ([3]; after treatment and after drug removal): declining levels of phosphorylation
- levels of MDM2, p53 and p21 protein ([3]; drug present, decreased when drug removed): elevated

Structure (SMILES): Nc1nc(O)c2ncn(COC(CO)CO)c2n1 [ganciclovir]
- % of the aorta covered in plaques ([4]; area of Sudan IV staining, versus LDLR−/− control mice): significantly lower
- atherosclerotic plaques in descending aorta (Sudan IV staining) ([4]; cycles of 5 days 25 mg/kg ip daily, 14 days off, 100 days): fewer atherosclerotic plaques with less intense staining
- plaque morphology ([4]; stained cross-sections): presence of a thick fibrin cap and the absence of lipid pockets
- presence of senescent cells in epididymal fat (SA-β-Gal) [5]: significant reduction
- restoration of wheel count reduction caused by chemotherapy treatment [6]: approximately 70%
